Tested on: peroxide level in the skin
Test: TBA test of peroxide level in skin of adult mice after topical application
Assay type: in vivo
Settings: 0.1% dissolved in Oil of Olay, similar experiments
Text: Samples of lotions and appropriate controls were applied to mice or rat skin for a fixed period. The application was done once a day. Experiments were terminated by killing the animal, peeling the skin and freezing it in liquid nitrogen. Samples of the frozen skin were homogenized in 0.2M phosphate buffer, pH 6.5. After centrifugation, the supernatant was collected and analyzed for the peroxide value using the TBA (thiobarbituric acid) test as described by Sinnhuber et al, Food Res. 23: 620 (1958). In the experiments which follow, newborn (hairless) rats were used. It is generally considered that the penetration through the skin of newborn rats is better than in adult rats, since at this stage they have not yet developed any fur.
In these experiments adult mice (2 months old) were treated as described in Example 2. The grown mice were shaved before applying the lotions to the skin.
In this experiment the antioxidant was dissolved in Oil of Olay. Mice were sacrificed after 21 days.

Compound	reduction of the level of peroxides
COc1ccc(O)c(C(C)(C)C)c1 [BHA]	no reduction of the level of peroxides was observed
Cc1cc(C(C)(C)C)c(O)c(C(C)(C)C)c1 [BHT]	no reduction of the level of peroxides was observed
Cc1c(C)c2c(c(C)c1O)CCC(C)(CCCC(C)CCCC(C)CCCC(C)C)O2 (stereo not drawn) [alpha tocopherol]	no reduction of the level of peroxides was observed

From US4986985A, “Method of treating skin virus infections” (Bar Ilan University, priority 1987, dated 1991)
